Columns and labels:
[1] = system: wt Mtb; type: cell-based, Mycobacterium tuberculosis; details: for augmentation of anti-mycobacterial activity of nitrite, inhibitor added along with nitrite at day 0: pH 6.5
[2] = system: tubercle bacilli; details: cited from earlier work
[3] = system: wt Mtb
[4] = target: mycobacterial proteasome (Mycobacterium tuberculosis, UniProt P9WHT9); details: tetrapeptide substrate, 0.05% SDS; FIG. 11A
Protocol: To measure proteasomal protease activity, Mtb was lysed by agitation with zirconia silica beads. The soluble fraction was filtered through a 0.45 micron filter. Aliquots of the filtrate (120 g protein) were incubated with succinyl-leu-leu-val-tyr-alpha-methylcoumarin (SEQ ID NO: 1) in the presence of 0.05% SDS and fluorescence was monitored. […] The 50% inhibitory concentration was determined by applying the Hill equation to data from 2 experiments, each in triplicate.

[5] = system: wt Mtb; type: cell-based, Mycobacterium tuberculosis

mycobacterial proteasome, sequence (P9WHT9 58-291): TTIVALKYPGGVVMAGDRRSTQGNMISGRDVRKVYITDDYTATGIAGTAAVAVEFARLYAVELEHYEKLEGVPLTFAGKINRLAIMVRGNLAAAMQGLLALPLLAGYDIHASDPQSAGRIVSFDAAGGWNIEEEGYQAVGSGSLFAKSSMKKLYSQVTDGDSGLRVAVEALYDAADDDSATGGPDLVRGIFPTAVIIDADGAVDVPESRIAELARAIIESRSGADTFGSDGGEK
mycobacterial proteasome, sequence (P9WHU1 whole entry partner): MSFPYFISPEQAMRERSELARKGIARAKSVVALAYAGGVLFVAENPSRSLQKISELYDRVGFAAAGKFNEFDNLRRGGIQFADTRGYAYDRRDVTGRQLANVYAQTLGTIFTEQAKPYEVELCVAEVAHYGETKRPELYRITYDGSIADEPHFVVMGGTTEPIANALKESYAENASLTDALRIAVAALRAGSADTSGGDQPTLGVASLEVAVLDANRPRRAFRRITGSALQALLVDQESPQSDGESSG

| SMILES | augmentation of anti-mycobacterial activity of nitrite, inhibitor added only at the subculture [1] | augmentation of the mycobacteriacidal effect of nitrite, inhibitors and nitrite removed simultaneously [1] | augmentation of anti-mycobacterial activity of nitrite, inhibitor added along with nitrite at day 0 [1] | potency of killing tubercle bacilli in vitro [2] [µM] | augmentation of nitrite-mediated injury of wt Mtb [1] | outgrowth of Mtb in culture after nitrite [3] | inhibition of proteasomal protease activity in Mtb lysates [4] | growth of Mtb under standard culture conditions [5] |
| --- | --- | --- | --- | --- | --- | --- | --- | --- |
| CC[C@H](C)[C@H](NC(=O)[C@H]([C@@H](C)CC)N(C)C(C)=O)C(=O)N[C@H](C(=O)N[C@@H](CC(C)C)C(=O)[C@@]1(C)CO1)[C@@H](C)O [epoxomicin] | just as effective | augmented the mycobacteriacidal effect of nitrite | increased the anti-mycobacterial activity of nitrite |  |  |  |  |  |
| [N]=O [nitric oxide] |  |  |  | ~0.15 |  |  |  |  |
| CC(C)C[C@H](NC(=O)[C@H](Cc1cccc2ccccc12)NC(=O)N1CCOCC1)B(O)O [MLN-273, N-[4-morpholine]carbonyl-β-[1-naphthyl]-L-alanine-L-leucine boronic acid] | just as effective | did not | increased the anti-mycobacterial activity of nitrite |  | augmented nitrite-mediated injury | enhanced the ability of nitrite to suppress outgrowth of Mtb | potently blocked proteasomal protease activity | suppressed the growth of Mtb |

— patent US7282491B2, “Prokaryotic proteasomal proteases of Mycobacterium tuberculosis (MTB) as targets for antibiotic therapy” (Cornell Research Foundation, Inc., priority 2002, dated 2007)
